This note sets out measurements from patent publication US20190264228A1, “TRANSFECTION METHOD COMPRISING NONVIRAL GENE DELIVERY SYSTEMS” (priority 2016, published 2019).

Each structure is given as a SMILES string. Read-outs that look alike come from different tables or passages of the source.

The test concerns HeLa cells. Briefly: Lipofection of HeLa cells with pCMV-luc / Rotifect Plus; transfection efficiency by luciferase reporter assay. It is filed as cell-based. To be noted: for Results in RLU (averages of three tests): inhibitors added 2 hours before and during transfection, luciferase assay after 24 hours; for Results in RLU/μg protein (averages): carried out analogously with Example 1. As to the method:
The transfection efficiency was measured indirectly using a luciferase enzyme, which was coded by the inserted nucleic acid. This is a reporter gene system. These are established systems for detecting the transfection efficiency. Thus, the greater the amount of luciferase which can be detected in a culture vessel after lysis of the transfected cells, the greater the transfection efficiency. The amount of luciferase is detected by way of an enzyme substrate reaction in which a light quantum is released. These light quanta can be measured by suitable measurement devices known as luminometers. Since the number of light quanta measured is dependent in particular on the time interval in which the measurement took place, this light quantum amount is also denoted as “relative light units”. For comparative studies, the measurement conditions must therefore be identical. […] In both examples, for the treatment using the IKKe/TBK1 inhibitor and an inhibitor for a nucleic-acid-detecting toll-like receptor a significant improvement can be observed, and also cannot be explained merely by simple addition of the individual rates of increase for TKKe/TBK1 inhibitor and an inhibitor for a nucleic-acid-detecting toll-like receptor. This is thus clearly a synergistic effect. The following was used as general material: • 1. HeLa cells; ATTC CCL-2 • 2. Rotifect Plus, Carl Roth; Cat. No.: CL21.2 • 3. 48-well plates; Cellstar; Greiner BioOne; Cat. No.: 677180 • 4. DMEM; high-glucose; Biowest, w/stable glutamine/sodium pyruvate, Cat. No.: L103-500 • 5. Serum FBS Gold; PAN Biotech; Batch No. P130914: Cat. No.: P40-37500 • 6. pCMV-luc, Plasmid Factory, Cat. No.: PF461 • 7. Luciferase Assay Kit, Promega • 8. Dimethyl sulphoxide (DMSO for molecular biology), Fluka; Cat. No.: 41639 • 9. […] No.: 204001 • 10. […] Fluka; Cat. No.: C6628 • 11. […] TCI: Cat. No.: Q0056 The first embodiment, shown in FIG. 1, relates to lipofection of HeLa cells with a conventional commercial transfection reagent (Rotifect Plus), which were treated with the inhibitor BX795 for IKKe and TBK1 and with chloroquine as an inhibitor for TLR9 before and during the transfection. The lipofection of the HeLa cells was carried out over a 3-day period: […] HeLa cells were seeded into a 48-well plate. A cell count of 1*10^5 cells per well was plated in 250 μl complete DMEM medium (10% FCS). This was followed by incubation in a CO2 incubator (10%) for 24 hours. […] This was followed by incubation in a CO2 incubator (10%) for 24 hours. The efficiency of the transfection was determined using a luciferase assay kit. The assay was carried out in accordance with the manufacturer's instructions. The second embodiment, shown in FIG. 2, relates to lipofection of HeLa cells, which were treated with the inhibitor BX795 for IKKe and TBK1 and with quinacrine as an inhibitor for TLR9 before and during the transfection. The lipofection of the HeLa was carried out analogously with Example 1.
A general note: A reporter such as luciferase makes a cellular process visible.

Setting [1] is: Example 1, FIG. 1, HeLa cells, BX795 0.5 μM, chloroquine 10 μM.
Where [2] appears, read: Example 1, HeLa cells, BX795 0.5 μM, chloroquine 10 μM.
Setting [3] is: Example 2, FIG. 2, HeLa cells, BX795 0.5 μM, quinacrine 2.5 μM.
[4] abbreviates: Example 2, HeLa cells, BX795 0.5 μM, quinacrine 2.5 μM.
[5] abbreviates: Homo sapiens, HeLa, Example 2, FIG. 2, HeLa cells, BX795 0.5 μM, quinacrine 2.5 μM, read-out: transfection efficiency normalised to transfection without inhibitors (ST = 100%).

`O=C(NCCCNc1nc(Nc2cccc(NC(=O)N3CCCC3)c2)ncc1I)c1cccs1` [BX795]: the “Results in RLU (averages of three tests)” value under setting [1] was found to be 50282 RLU. Also, the “increase over standard transfection” value under setting [2] amounted to 256% and the “increase over standard transfection” value under setting [4] worked out at 285%. In addition, the “Results in RLU/μg protein (averages)” value under setting [3] was determined as 27260 RLU/μg protein. The activity at 0.5 µM runs as follows: (Homo sapiens, HeLa, Example 1, FIG. 1, HeLa cells, BX795 0.5 μM, chloroquine 10 μM, read-out: transfection efficiency normalised to transfection without inhibitors (ST = 100%)) 356%; under setting [5], 141%.
With `CCN(CC)CCCC(C)Nc1ccnc2cc(Cl)ccc12` (stereo not drawn) [Chloroquine], the “Results in RLU (averages of three tests)” value under setting [1] was 46817 RLU. Further, the “increase over standard transfection” value under setting [2] turned out to be 19%. Besides, under “Homo sapiens, HeLa, read-out: transfection efficiency normalised to transfection without inhibitors (ST = 100%)”, the activity at 10 µM turned out to be 119%.
`CCN(CC)CCCC(C)Nc1c2ccc(Cl)cc2nc2ccc(OC)cc12` (stereo not drawn) [Quinacrine, quinacrine]: under setting [3], the “Results in RLU/μg protein (averages)” value was determined as 73924 RLU/μg protein. Further, under setting [4], the “increase over standard transfection” value was 41%. Under setting [5], the activity at 2.5 µM amounted to 385%.
